{"source": "PubChem BioAssay AID2060883", "about": "(Molecular Pharmacology Branch, DTP, NCI, 2025)", "system": "843782-103-R-J1-PDC complex spheroid viability", "assay": "Anticancer human tumor 843782-103-R-J1-PDC patient-derived lung adenocarcinoma cell line growth inhibition [RAS]", "conditions": "for viability, T/C: stronger effect = lower value; for IC50: curve of first compound", "in_short": "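Multi-cell-type spheroids: tumor cells plus HUVEC endothelial cells and mesenchymal stem cells. RAS-pathway inhibitors were combined with targeted agents, each dosed in half-log steps down from clinical Cmax, or from 10 microM when Cmax was unknown.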", "note": "Values joined by “and” are separate entries in the source; they are usually repeats but may differ in a detail not shown here. Identical values can stand only once.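 Also: viability read after seven days of compound exposure.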", "data": [{"molecule": "O=C(c1ccc(F)c(F)c1Nc1ccc(I)cc1F)N1CC(O)([C@@H]2CCCCN2)C1", "values": [{"measurement": "viability, T/C", "setting": "compound 0.00316 µM", "result": "99.8% and 99.4% and 102% (2×)"}, {"measurement": "viability, T/C", "setting": "compound 0.01 µM", "result": "93.1% [middle of 4 runs]"}, {"measurement": "viability, T/C", "setting": "compound 0.316 µM", "result": "48.7% [middle of 4 runs]"}, {"measurement": "viability, T/C", "setting": "compound 1 µM", "result": "27.1% [middle of 4 runs]"}]}, {"molecule": "O=C(c1ccc(F)c(F)c1Nc1ccc(I)cc1F)N1CC(O)([C@@H]2CCCCN2)C1", "note": "+ CCn1c(-c2cc(N3CCN(C)CC3)cnc2C(C)OC)c2c3cc(ccc31)-c1csc(n1)CC(NC(=O)C1CC1C)C(=O)N1CCCC(N1)C(=O)OCC(C)(C)C2", "values": [{"measurement": "IC50", "setting": "second compound 0.000949 µM", "result": 18, "unit": "nM"}, {"measurement": "IC50", "setting": "second compound 0.003 µM", "result": 4.01, "unit": "nM"}, {"measurement": "IC50", "setting": "second compound 0.00949 µM", "result": "< 3.16", "unit": "nM"}, {"measurement": "IC50", "setting": "second compound 0.03 µM", "result": "< 3.16", "unit": "nM"}, {"measurement": "IC50", "setting": "second compound 0.0949 µM", "result": "< 3.16", "unit": "nM"}, {"measurement": "IC50", "setting": "second compound 0.3 µM", "result": "< 3.16", "unit": "nM"}, {"measurement": "viability, T/C", "setting": "second compound 0.000949 µM, first compound 0.00316 µM", "result": 68.7, "unit": "%"}, {"measurement": "viability, T/C", "setting": "second compound 0.000949 µM, first compound 0.01 µM", "result": 63.4, "unit": "%"}, {"measurement": "viability, T/C", "setting": "second compound 0.000949 µM, first compound 0.0316 µM", "result": 36.7, "unit": "%"}, {"measurement": "viability, T/C", "setting": "second compound 0.000949 µM, first compound 0.1 µM", "result": 26.3, "unit": "%"}, {"measurement": "viability, T/C", "setting": "second compound 0.000949 µM, first compound 0.316 µM", "result": 19, "unit": "%"}, {"measurement": "viability, T/C", "setting": "second compound 0.000949 µM, first compound 1 µM", "result": 11, "unit": "%"}, {"measurement": "viability, T/C", "setting": "second compound 0.003 µM, first compound 0.00316 µM", "result": 53, "unit": "%"}, {"measurement": "viability, T/C", "setting": "second compound 0.003 µM, first compound 0.01 µM", "result": 37.5, "unit": "%"}, {"measurement": "viability, T/C", "setting": "second compound 0.003 µM, first compound 0.0316 µM", "result": 31.5, "unit": "%"}, {"measurement": "viability, T/C", "setting": "second compound 0.003 µM, first compound 0.1 µM", "result": 17.7, "unit": "%"}, {"measurement": "viability, T/C", "setting": "second compound 0.003 µM, first compound 0.316 µM", "result": 11.7, "unit": "%"}, {"measurement": "viability, T/C", "setting": "second compound 0.003 µM, first compound 1 µM", "result": 10.3, "unit": "%"}, {"measurement": "viability, T/C", "setting": "second compound 0.00949 µM, first compound 0.00316 µM", "result": 30, "unit": "%"}, {"measurement": "viability, T/C", "setting": "second compound 0.00949 µM, first compound 0.01 µM", "result": 19.3, "unit": "%"}, {"measurement": "viability, T/C", "setting": "second compound 0.00949 µM, first compound 0.0316 µM", "result": 16.9, "unit": "%"}, {"measurement": "viability, T/C", "setting": "second compound 0.00949 µM, first compound 0.1 µM", "result": 10.9, "unit": "%"}, {"measurement": "viability, T/C", "setting": "second compound 0.00949 µM, first compound 0.316 µM", "result": 9.55, "unit": "%"}, {"measurement": "viability, T/C", "setting": "second compound 0.00949 µM, first compound 1 µM", "result": 7.11, "unit": "%"}, {"measurement": "viability, T/C", "setting": "second compound 0.03 µM, first compound 0.00316 µM", "result": 14.8, "unit": "%"}, {"measurement": "viability, T/C", "setting": "second compound 0.03 µM, first compound 0.01 µM", "result": 15.3, "unit": "%"}, {"measurement": "viability, T/C", "setting": "second compound 0.03 µM, first compound 0.0316 µM", "result": 10.1, "unit": "%"}, {"measurement": "viability, T/C", "setting": "second compound 0.03 µM, first compound 0.1 µM", "result": 8.81, "unit": "%"}, {"measurement": "viability, T/C", "setting": "second compound 0.03 µM, first compound 0.316 µM", "result": 8.18, "unit": "%"}, {"measurement": "viability, T/C", "setting": "second compound 0.03 µM, first compound 1 µM", "result": 9.08, "unit": "%"}, {"measurement": "viability, T/C", "setting": "second compound 0.0949 µM, first compound 0.00316 µM", "result": 13, "unit": "%"}, {"measurement": "viability, T/C", "setting": "second compound 0.0949 µM, first compound 0.01 µM", "result": 10.8, "unit": "%"}, {"measurement": "viability, T/C", "setting": "second compound 0.0949 µM, first compound 0.0316 µM", "result": 9.11, "unit": "%"}, {"measurement": "viability, T/C", "setting": "second compound 0.0949 µM, first compound 0.1 µM", "result": 7.24, "unit": "%"}, {"measurement": "viability, T/C", "setting": "second compound 0.0949 µM, first compound 0.316 µM", "result": 7.61, "unit": "%"}, {"measurement": "viability, T/C", "setting": "second compound 0.0949 µM, first compound 1 µM", "result": 8.33, "unit": "%"}, {"measurement": "viability, T/C", "setting": "second compound 0.3 µM, first compound 0.00316 µM", "result": 10.4, "unit": "%"}, {"measurement": "viability, T/C", "setting": "second compound 0.3 µM, first compound 0.01 µM", "result": 8.56, "unit": "%"}, {"measurement": "viability, T/C", "setting": "second compound 0.3 µM, first compound 0.0316 µM", "result": 7.38, "unit": "%"}, {"measurement": "viability, T/C", "setting": "second compound 0.3 µM, first compound 0.1 µM", "result": 6.95, "unit": "%"}, {"measurement": "viability, T/C", "setting": "second compound 0.3 µM, first compound 0.316 µM", "result": 8.88, "unit": "%"}, {"measurement": "viability, T/C", "setting": "second compound 0.3 µM, first compound 1 µM", "result": 5.35, "unit": "%"}]}, {"molecule": "CC(C)n1nc(-c2ccc3oc(N)nc3c2)c2c(N)ncnc21", "note": "+ C#Cc1c(F)ccc2cc(O)cc(-c3ncc4c(N5CC6CCC(C5)N6)nc(OCC56CCCN5CC(F)C6)nc4c3F)c12", "values": [{"measurement": "IC50", "setting": "second compound 0.0316 µM", "result": 38.3, "unit": "nM"}, {"measurement": "IC50", "setting": "second compound 0.1 µM", "result": 24.4, "unit": "nM"}, {"measurement": "IC50", "setting": "second compound 0.316 µM", "result": 20.8, "unit": "nM"}, {"measurement": "IC50", "setting": "second compound 1 µM", "result": 18.9, "unit": "nM"}, {"measurement": "IC50", "setting": "second compound 3.16 µM", "result": 6.61, "unit": "nM"}, {"measurement": "IC50", "setting": "second compound 10 µM", "result": 0.794, "unit": "nM"}, {"measurement": "viability, T/C", "setting": "second compound 0.0316 µM, first compound 0.000316 µM", "result": 108, "unit": "%"}, {"measurement": "viability, T/C", "setting": "second compound 0.0316 µM, first compound 0.001 µM", "result": 93.9, "unit": "%"}, {"measurement": "viability, T/C", "setting": "second compound 0.0316 µM, first compound 0.00316 µM", "result": 97.5, "unit": "%"}, {"measurement": "viability, T/C", "setting": "second compound 0.0316 µM, first compound 0.01 µM", "result": 70.8, "unit": "%"}, {"measurement": "viability, T/C", "setting": "second compound 0.0316 µM, first compound 0.0316 µM", "result": 55.1, "unit": "%"}, {"measurement": "viability, T/C", "setting": "second compound 0.0316 µM, first compound 0.1 µM", "result": 31.2, "unit": "%"}, {"measurement": "viability, T/C", "setting": "second compound 0.1 µM, first compound 0.000316 µM", "result": 105, "unit": "%"}, {"measurement": "viability, T/C", "setting": "second compound 0.1 µM, first compound 0.001 µM", "result": 95.7, "unit": "%"}, {"measurement": "viability, T/C", "setting": "second compound 0.1 µM, first compound 0.00316 µM", "result": 93.8, "unit": "%"}, {"measurement": "viability, T/C", "setting": "second compound 0.1 µM, first compound 0.01 µM", "result": 72.5, "unit": "%"}, {"measurement": "viability, T/C", "setting": "second compound 0.1 µM, first compound 0.0316 µM", "result": 42.8, "unit": "%"}, {"measurement": "viability, T/C", "setting": "second compound 0.1 µM, first compound 0.1 µM", "result": 29.8, "unit": "%"}, {"measurement": "viability, T/C", "setting": "second compound 0.316 µM, first compound 0.000316 µM", "result": 101, "unit": "%"}, {"measurement": "viability, T/C", "setting": "second compound 0.316 µM, first compound 0.001 µM", "result": 91.2, "unit": "%"}, {"measurement": "viability, T/C", "setting": "second compound 0.316 µM, first compound 0.00316 µM", "result": 91.2, "unit": "%"}, {"measurement": "viability, T/C", "setting": "second compound 0.316 µM, first compound 0.01 µM", "result": 66.3, "unit": "%"}, {"measurement": "viability, T/C", "setting": "second compound 0.316 µM, first compound 0.0316 µM", "result": 40.6, "unit": "%"}, {"measurement": "viability, T/C", "setting": "second compound 0.316 µM, first compound 0.1 µM", "result": 26, "unit": "%"}, {"measurement": "viability, T/C", "setting": "second compound 1 µM, first compound 0.000316 µM", "result": 99.7, "unit": "%"}, {"measurement": "viability, T/C", "setting": "second compound 1 µM, first compound 0.001 µM", "result": 87.8, "unit": "%"}, {"measurement": "viability, T/C", "setting": "second compound 1 µM, first compound 0.00316 µM", "result": 81.7, "unit": "%"}, {"measurement": "viability, T/C", "setting": "second compound 1 µM, first compound 0.01 µM", "result": 62.1, "unit": "%"}, {"measurement": "viability, T/C", "setting": "second compound 1 µM, first compound 0.0316 µM", "result": 39.6, "unit": "%"}, {"measurement": "viability, T/C", "setting": "second compound 1 µM, first compound 0.1 µM", "result": 21.8, "unit": "%"}, {"measurement": "viability, T/C", "setting": "second compound 3.16 µM, first compound 0.000316 µM", "result": 93, "unit": "%"}, {"measurement": "viability, T/C", "setting": "second compound 3.16 µM, first compound 0.001 µM", "result": 70, "unit": "%"}, {"measurement": "viability, T/C", "setting": "second compound 3.16 µM, first compound 0.00316 µM", "result": 71.8, "unit": "%"}, {"measurement": "viability, T/C", "setting": "second compound 3.16 µM, first compound 0.01 µM", "result": 39.1, "unit": "%"}, {"measurement": "viability, T/C", "setting": "second compound 3.16 µM, first compound 0.0316 µM", "result": 25.3, "unit": "%"}, {"measurement": "viability, T/C", "setting": "second compound 3.16 µM, first compound 0.1 µM", "result": 19.4, "unit": "%"}, {"measurement": "viability, T/C", "setting": "second compound 10 µM, first compound 0.000316 µM", "result": 63.3, "unit": "%"}, {"measurement": "viability, T/C", "setting": "second compound 10 µM, first compound 0.001 µM", "result": 41, "unit": "%"}, {"measurement": "viability, T/C", "setting": "second compound 10 µM, first compound 0.00316 µM", "result": 38.5, "unit": "%"}, {"measurement": "viability, T/C", "setting": "second compound 10 µM, first compound 0.01 µM", "result": 28, "unit": "%"}, {"measurement": "viability, T/C", "setting": "second compound 10 µM, first compound 0.0316 µM", "result": 18.8, "unit": "%"}, {"measurement": "viability, T/C", "setting": "second compound 10 µM, first compound 0.1 µM", "result": 10.6, "unit": "%"}]}]}
